Laboratory results reported in patent US20250382332A1, “NOVEL ALPHA-FACTOR BASED PEPTIDES WITH ANTIFUNGAL ACTIVITY” (INVAIO SCIENCES, INC., priority 2024, published 2025).
Peptide text beside a SMILES is read from it.

Test system: Botrytis cinerea (B05.10)
Assay: Resazurin antifungal assay of 180 alpha-factor peptide variants towards Botrytis (Example 2)
Assay type: cell-based
Settings: % inhibition of fungal growth, Botrytis conidia, resazurin; for Inhibition at 10 μM: peptide 10 μM; for Inhibition at 20 μM: peptide 20 μM; for Inhibition at 50 μM: peptide 50 μM; for Inhibition at 100 μM: peptide 100 μM; for Inhibition at 15 μM: peptide 15 μM
Summary of the method: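 Resazurin viability read-out (570/620 nm fluorescence) after a 24 h, 20° C incubation of B05.10 conidia, 5000 per well, with peptide at final 10-100 μM. Growth inhibition (%) was derived by subtracting conidia-only fluorescence; four replicates per treatment.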

| Structure (SMILES) | Inhibition at 10 μM [%] | Inhibition at 20 μM [%] | Inhibition at 50 μM [%] | Inhibition at 100 μM [%] | Inhibition at 15 μM [%] |
| --- | --- | --- | --- | --- | --- |
| CC[C@H](C)[C@H](NC(=O)[C@H](C)NC(=O)[C@H](CC(C)C)NC(=O)[C@H](Cc1c[nH]c2ccccc12)NC(=O)[C@H](Cc1c[nH]cn1)NC(=O)[C@@H](N)Cc1c[nH]c2ccccc12)C(=O)N[C@@H](Cc1ccccc1)C(=O)N[C@@H](CCCNC(=N)N)C(=O)NCC(=O)N[C@@H](CCC(N)=O)C(=O)N1CCC[C@H]1C(=O)N[C@@H](CCSC)C(=O)N[C@@H](Cc1ccc(O)cc1)C(=O)O [compound 57] (H-WHWLAIFRGQPMY-OH; N-terminus and C-terminus assumed) | 3.45 | <90 | 100 | 100 | – |
| CSCC[C@H](NC(=O)[C@@H]1CCCN1C(=O)[C@H](CCC(N)=O)NC(=O)CNC(=O)[C@@H]1CCCN1C(=O)[C@H](CCCCN)NC(=O)[C@H](CC(C)C)NC(=O)[C@H](CCCNC(=N)N)NC(=O)[C@H](CC(C)C)NC(=O)[C@H](CC(C)C)NC(=O)[C@H](Cc1c[nH]cn1)NC(=O)[C@@H](N)CCCCN)C(=O)N[C@@H](Cc1ccc(O)cc1)C(=O)O [compound 88] (H-KHLLRLKPGQPMY-OH; N-terminus and C-terminus assumed) | <90 | <90 | 99.75 | 100 | – |
| CSCC[C@H](NC(=O)[C@@H]1CCCN1C(=O)[C@H](CCC(N)=O)NC(=O)CNC(=O)[C@H](CO)NC(=O)[C@H](Cc1c[nH]c2ccccc12)NC(=O)[C@H](CC(C)C)NC(=O)[C@H](CCC(N)=O)NC(=O)CNC(=O)[C@H](CO)NC(=O)[C@H](Cc1c[nH]cn1)NC(=O)[C@@H]1CCCN1)C(=O)N[C@@H](Cc1ccc(O)cc1)C(=O)O [compound 42] (H-PHSGQLWSGQPMY-OH; N-terminus and C-terminus assumed) | – | – | <90 | <90 | – |
| CSCC[C@H](NC(=O)[C@@H]1CCCN1C(=O)[C@H](CCC(N)=O)NC(=O)CNC(=O)[C@@H]1CCCN1C(=O)[C@H](Cc1c[nH]cn1)NC(=O)[C@H](CC(C)C)NC(=O)[C@H](CCC(N)=O)NC(=O)[C@@H](NC(=O)[C@H](CC(C)C)NC(=O)[C@H](Cc1c[nH]cn1)NC(=O)[C@@H](N)CCCCN)C(C)C)C(=O)N[C@@H](Cc1ccc(O)cc1)C(=O)O [compound 168] (H-KHLVQLHPGQPMY-OH; N-terminus and C-terminus assumed) | – | – | <90 | <90 | – |
| CSCC[C@H](NC(=O)[C@@H]1CCCN1C(=O)[C@H](CCC(N)=O)NC(=O)CNC(=O)[C@@H]1CCCN1C(=O)[C@H](CCCCN)NC(=O)[C@H](Cc1ccccc1)NC(=O)[C@H](CCC(N)=O)NC(=O)CNC(=O)[C@H](Cc1c[nH]c2ccccc12)NC(=O)[C@H](CO)NC(=O)[C@@H](N)CCCCN)C(=O)N[C@@H](Cc1ccc(O)cc1)C(=O)O [compound 39] (H-KSWGQFKPGQPMY-OH; N-terminus and C-terminus assumed) | – | – | <90 | <90 | – |
| CSCC[C@H](NC(=O)[C@@H]1CCCN1C(=O)[C@H](CO)NC(=O)CNC(=O)[C@@H]1CCCN1C(=O)[C@H](CCCCN)NC(=O)[C@H](CC(C)C)NC(=O)[C@H](C)NC(=O)[C@H](CC(C)C)NC(=O)[C@@H](NC(=O)[C@H](Cc1c[nH]cn1)NC(=O)[C@@H](N)CCCCN)C(C)C)C(=O)N[C@@H](Cc1ccc(O)cc1)C(=O)O [compound 154] (H-KHVLALKPGSPMY-OH; N-terminus and C-terminus assumed) | – | – | <90 | <90 | – |
| CSCC[C@H](NC(=O)[C@@H]1CCCN1C(=O)[C@H](CCC(N)=O)NC(=O)CNC(=O)[C@@H]1CCCN1C(=O)[C@H](CCCCN)NC(=O)[C@H](Cc1ccccc1)NC(=O)[C@H](CCCNC(=N)N)NC(=O)[C@H](CC(C)C)NC(=O)[C@@H](NC(=O)[C@H](Cc1c[nH]cn1)NC(=O)[C@@H](N)Cc1c[nH]c2ccccc12)C(C)C)C(=O)N[C@@H](Cc1ccc(O)cc1)C(=O)O [compound 101] (H-WHVLRFKPGQPMY-OH; N-terminus and C-terminus assumed) | <90 | <90 | 90.50 | 100 | – |
| CC[C@H](C)[C@H](NC(=O)[C@H](Cc1c[nH]c2ccccc12)NC(=O)[C@H](Cc1c[nH]cn1)NC(=O)[C@@H](N)CCCCN)C(=O)N[C@@H](CCCNC(=N)N)C(=O)N[C@@H](CC(C)C)C(=O)N[C@@H](Cc1c[nH]c2ccccc12)C(=O)N1CCC[C@H]1C(=O)NCC(=O)N[C@@H](CCC(N)=O)C(=O)N1CCC[C@H]1C(=O)N[C@@H](CCSC)C(=O)N[C@@H](Cc1ccc(O)cc1)C(=O)O [compound 75] (H-KHWIRLWPGQPMY-OH; N-terminus and C-terminus assumed) | <90 | 92.02 | 100 | 100 | <90 |
| CSCC[C@H](NC(=O)[C@H](Cc1c[nH]cn1)NC(=O)[C@@H](N)CCCCN)C(=O)N[C@@H](CC(C)C)C(=O)N[C@@H](CCCNC(=N)N)C(=O)N[C@@H](Cc1ccccc1)C(=O)N[C@@H](CCCCN)C(=O)N1CCC[C@H]1C(=O)NCC(=O)N[C@@H](CCC(N)=O)C(=O)N1CCC[C@H]1C(=O)N[C@@H](CCSC)C(=O)N[C@@H](Cc1ccc(O)cc1)C(=O)O [compound 84] (H-KHMLRFKPGQPMY-OH; N-terminus and C-terminus assumed) | <90 | 97.08 | 100 | 100 | <90 |
| CSCC[C@H](NC(=O)[C@@H]1CCCN1C(=O)[C@H](CCC(N)=O)NC(=O)CNC(=O)[C@@H]1CCCN1C(=O)[C@H](CCCCN)NC(=O)[C@H](CC(C)C)NC(=O)[C@H](CCC(=O)O)NC(=O)CNC(=O)[C@H](Cc1c[nH]c2ccccc12)NC(=O)[C@H](Cc1c[nH]cn1)NC(=O)[C@@H]1CCCN1)C(=O)N[C@@H](Cc1ccc(O)cc1)C(=O)O [compound 143] (H-PHWGELKPGQPMY-OH; N-terminus and C-terminus assumed) | – | – | <90 | <90 | – |
| CC[C@H](C)[C@H](NC(=O)[C@H](CCSC)NC(=O)[C@H](Cc1c[nH]cn1)NC(=O)[C@@H](N)CCCCN)C(=O)N[C@@H](CCC(N)=O)C(=O)N[C@@H](CC(C)C)C(=O)N[C@@H](Cc1ccc(O)cc1)C(=O)N[C@@H](Cc1c[nH]c2ccccc12)C(=O)NCC(=O)N[C@@H](CCC(N)=O)C(=O)N1CCC[C@H]1C(=O)N[C@@H](CCSC)C(=O)N[C@@H](Cc1ccc(O)cc1)C(=O)O [compound 54] (H-KHMIQLYWGQPMY-OH; N-terminus and C-terminus assumed) | <90 | 93.21 | 100 | 100 | <90 |
| CC[C@H](C)[C@H](NC(=O)[C@H](Cc1c[nH]c2ccccc12)NC(=O)[C@H](Cc1c[nH]cn1)NC(=O)[C@@H](N)CCCCN)C(=O)N[C@@H](CCCCN)C(=O)N[C@@H](CC(C)C)C(=O)N[C@@H](CCSC)C(=O)N1CCC[C@H]1C(=O)NCC(=O)N[C@@H](CCC(N)=O)C(=O)NCC(=O)N[C@@H](CCSC)C(=O)N[C@@H](Cc1ccc(O)cc1)C(=O)O [compound 8] (H-KHWIKLMPGQGMY-OH; N-terminus and C-terminus assumed) | <90 | <90 | 100 | 100 | – |
| CSCC[C@H](NC(=O)[C@@H]1CCCN1C(=O)[C@H](CCC(N)=O)NC(=O)CNC(=O)[C@@H]1CCCN1C(=O)[C@H](CC(=O)O)NC(=O)[C@H](Cc1ccccc1)NC(=O)[C@H](CCC(=O)O)NC(=O)[C@@H](NC(=O)[C@H](Cc1c[nH]c2ccccc12)NC(=O)[C@H](Cc1c[nH]cn1)NC(=O)[C@@H]1CCCN1)C(C)C)C(=O)N[C@@H](Cc1ccc(O)cc1)C(=O)O [compound 128] (H-PHWVEFDPGQPMY-OH; N-terminus and C-terminus assumed) | – | – | <90 | <90 | – |
| CSCC[C@H](NC(=O)[C@H](Cc1c[nH]cn1)NC(=O)[C@@H]1CCCN1)C(=O)N[C@H](C(=O)N[C@@H](CCCNC(=N)N)C(=O)N[C@@H](CC(C)C)C(=O)N[C@@H](CCCCN)C(=O)N1CCC[C@H]1C(=O)NCC(=O)N[C@@H](CCC(N)=O)C(=O)N1CCC[C@H]1C(=O)N[C@@H](CCSC)C(=O)N[C@@H](Cc1ccc(O)cc1)C(=O)O)C(C)C [compound 132] (H-PHMVRLKPGQPMY-OH; N-terminus and C-terminus assumed) | – | – | <90 | 94.13 | – |
| CC[C@H](C)[C@H](NC(=O)[C@H](CCCCN)NC(=O)[C@@H](N)Cc1c[nH]c2ccccc12)C(=O)N[C@@H](CC(C)C)C(=O)N[C@H](C(=O)N[C@H](C(=O)N[C@@H](CCCCN)C(=O)N1CCC[C@H]1C(=O)NCC(=O)N[C@@H](CCC(N)=O)C(=O)N1CCC[C@H]1C(=O)N[C@@H](CCSC)C(=O)N[C@@H](Cc1ccc(O)cc1)C(=O)O)[C@@H](C)CC)[C@@H](C)O [compound 155] (H-WKILTIKPGQPMY-OH; N-terminus and C-terminus assumed) | – | – | <90 | <90 | – |
| CC[C@H](C)[C@H](NC(=O)[C@H](CCC(N)=O)NC(=O)[C@H](CC(C)C)NC(=O)[C@H](Cc1c[nH]c2ccccc12)NC(=O)[C@H](CCCNC(=N)N)NC(=O)[C@@H]1CCCN1)C(=O)N[C@@H](CCCCN)C(=O)N[C@@H](CCCCN)C(=O)NCC(=O)N[C@@H](CCC(N)=O)C(=O)N[C@@H](CO)C(=O)N[C@@H](CCSC)C(=O)N[C@@H](Cc1ccc(O)cc1)C(=O)O [compound 63] (H-PRWLQIKKGQSMY-OH; N-terminus and C-terminus assumed) | <90 | <90 | 100 | 100 | – |
